Columns and labels:
[1] = biological target: T1, PCSK9 protein (Homo sapiens, UniProt Q8NBP7); test: Binding ability to PCSK9 protein (HTRF); conditions: PCSK9-His, Alexa Fluor 647 probe compound
T1 construct: purchased Sino biology (Sino Biological) 29698-H08H
Procedure: 1. Experimental objective: To detect the action of compounds to bind PCSK9 protein by an HTRF method.
3. Experimental data processing method: Four-parameter log(inhibitor) vs. response—Variable slope (four parameters) in XLit was used to perform non-linear fitting of the compound concentration and the corresponding inhibition rate, and IC50 was calculated.

[2] = tested on: PCSK9 secreted by HepG2 cells; test: Effect on the concentration of PCSK9 secreted by HepG2 cells (ELISA); type: cell-based; conditions: Homo sapiens, 48 hours, PCSK9 in culture medium by ELISA
In short: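 HepG2 cells treated with compound for 48 h at 37° C., 5% CO2. Secreted PCSK9 in medium quantified by sandwich ELISA (HRP detection, OD 450 nm) against a 0–10 ng/mL standard curve. Inhibition relative to control; IC50 fitted from concentration–inhibition data.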

[3] = tested on: hyperlipidemia animal model of B6-hPCSK9 transgenic mice; test: In vivo pharmacodynamic study in hyperlipidemia model of B6-hPCSK9 transgenic mice (LDL-C, TC, plasma PCSK9); set-up: species or system B6-hPCSK9 transgenic C57 mice; conditions: PO administration, 10 mpk, Day 14, B6-hPCSK9 transgenic mice on high-fat feed, normalized to vehicle group
Procedure: 1. Experimental objective: The compounds of the present disclosure were evaluated for in vivo pharmacodynamics in a hyperlipidemia animal model of B6-hPCSK9 transgenic mice.
2.1 Animals: B6-hPCSK9 transgenic C57 mice, 6-8 weeks old, male, purchased from Jiangsu GemPharmatech Co., Ltd.
2.2 Animal model: After delivery to a barrier system, the animals were given one week for acclimatization and began to feed on the high-fat feed. The body weight and feed weight were weighed once a week, and the body weight and food intake thereof were recorded.
2.3 Grouping and administration • a. The animals were grouped by a random grouping method. • c. According to the grouping results, administration with the test drug was started (mode of administration: oral administration; administration volume: 10 mL/kg; frequency of administration: once/day or single administration; administration cycle: 21 days; vehicle: 10% Solutol HS 15/90% Saline). Test drug: Compounds of the present disclosure, made in house. • d. After the test drug was administered, the body weight and feed weight were weighed twice a week and blood was taken once a week. • e. The data was processed with software such as Excel. […] PCSK9 in plasma was detected by ELISA.

T1 sequence (Q8NBP7 153-692): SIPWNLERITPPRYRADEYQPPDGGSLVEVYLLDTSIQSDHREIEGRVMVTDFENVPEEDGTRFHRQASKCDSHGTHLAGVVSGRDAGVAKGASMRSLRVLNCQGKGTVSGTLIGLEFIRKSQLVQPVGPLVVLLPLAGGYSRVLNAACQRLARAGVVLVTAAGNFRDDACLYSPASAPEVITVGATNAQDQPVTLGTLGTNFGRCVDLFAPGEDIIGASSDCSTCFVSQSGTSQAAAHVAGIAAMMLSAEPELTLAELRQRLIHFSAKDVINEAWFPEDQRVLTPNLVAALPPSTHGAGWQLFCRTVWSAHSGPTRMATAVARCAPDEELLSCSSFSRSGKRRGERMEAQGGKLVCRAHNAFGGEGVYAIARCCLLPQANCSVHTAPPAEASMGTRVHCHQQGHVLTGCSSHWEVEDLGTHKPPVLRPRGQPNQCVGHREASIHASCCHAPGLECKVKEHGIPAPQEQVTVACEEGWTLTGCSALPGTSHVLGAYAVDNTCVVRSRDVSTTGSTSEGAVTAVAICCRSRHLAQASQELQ

Row | SMILES | IC50 [1] [nM] | IC50 [2] [µM] | LDL-C change vs vehicle (%), Day 14 [3] [%]
1 | O=C1c2ncccc2CN1c1cnc(N[C@H]2CC[C@H](Nc3nc4cc(OC(F)F)ccn4n3)C2)c(F)c1 [Example 151] | 8.1 | 12.7 | −31.09
2 | O=c1nc(O)ccn1-c1cnc(N[C@H]2CC[C@H](Nc3nc4cc(C(F)(F)F)ccn4n3)C2)c(F)c1 [Example 183] | 8.8 | 4.8 | −48.90
3 | O=c1nc(O)ccn1-c1ccc(N[C@H]2CC[C@H](Nc3nc4cc(C(F)(F)F)ccn4n3)C2)nc1 [Example 78, 4-hydroxy-1-(6-(((1S,3S)-3-((7-(trifluoromethyl)-[1,2,4]triazolo[1,5-a]pyridin-2-yl)amino)cyclopentyl)amino)pyridin-3-yl)pyrimidin-2(1H)-one] | 10.1 | 33.1 | −37.98
